Test results reported in US11147272B2, “Pyridone compounds and agricultural and horticultural fungicides comprising the same as active ingredients” (MITSUI CHEMICALS AGRO, INC., priority 2017, dated 2021).

Key:
Magnaporthe grisea = test: whole plant or invertebrate; format: in vivo; settings: 250 ppm drug solution sprayed on test plant
Phytophthora infestans = test: whole plant or invertebrate; format: in vivo; settings: 250 ppm drug solution sprayed on test plant
[1] = tested on: Blumeria graminis f. sp. hordei; test: Test Example D: Powdery mildew on barley; settings: 250 ppm drug solution sprayed on test plant
Puccinia recondita = test: Test Example E: Brown rust on wheat; format: in vivo; settings: 250 ppm drug solution sprayed on test plant
Alternaia brassicicola = test: Test Example C: Alternaria sooty spot on cabbage; format: in vivo; settings: 250 ppm drug solution sprayed on test plant
Excerpt: Seeds of a test plant (cabbage variety: Shikidori) were planted and cultivated until the cotyledons extended.
<Control Value> Control value=100{1−(n/3)}

Botrytis cinerea = test: Test Example B: Gray mold on tomato; settings: 250 ppm drug solution sprayed on test plant
[2] = tested on: Colletotrichum orbiculare; test: Test Example H: Anthracnose on cucumber; settings: 250 ppm drug solution sprayed (2.5 ml/pot), cucumber Sagami Hanjiro, 6 to 10 days after inoculation
Procedure: Seeds of a test plant (cucumber variety: Sagami Hanjiro) were planted and cultivated until the first leaf appeared. In the test, the inventive compounds were dissolved into dimethyl sulfoxide-methanol mixture solution (volume ratio: 9/1), and the resultant solutions were diluted with well water to a concentration of 250 ppm to obtain the drug solutions. The drug solutions were sprayed to the test plant (2.5 ml/pot). After the drug solutions dried, a conidial suspension (2-4×10^5 conidia/ml) of Colletotrichum orbiculare was inoculated to the plant by spraying. After the inoculation, the plant was kept in a mist chamber at room temperature of 20 to 23° C. for about 24 hours to promote the onset of disease. The degrees of disease development were investigated 6 to 10 days after the inoculation, and the effectiveness of the drug solutions was evaluated.
In Test Examples described above, the degrees of disease development were evaluated in increments of 0.05 from 0 (as no incidence of disease) to 3 (as the degree of disease development in an untreated plant group). Further, control values were calculated using the following equation based on the degree of disease development.
n=Degree of disease development in each treated group
In the table, H: more than 50% control value, L: 50% or less control value, and nt: not tested.

Plasmopara viticola = test: Test Example G: Downy mildew on vine; settings: 250 ppm drug solution sprayed (2.5 ml/pot), grape Neomuscat, 7 to 10 days after inoculation

Compound	Test A control value (Magnaporthe grisea)	Test F control value (Phytophthora infestans)	Test D control value [1]	Test E control value (Puccinia recondita)	Test C control value (Alternaia brassicicola)	Test B control value (Botrytis cinerea)	Test H control value [2]	Test G control value (Plasmopara viticola)
CCCc1cc(I)c(=O)n(CC(F)F)c1-c1c(F)cc(F)cc1F [compound 473]	H (more than 50% control value)	L (50% or less control value)	H (more than 50% control value)	H (more than 50% control value)	H (more than 50% control value)	H (more than 50% control value)	L (50% or less control value)	L (50% or less control value)
CCCc1ccc(=O)n(CC(F)F)c1-c1c(F)cc(OC)cc1F [compound 474]	H (more than 50% control value)	L (50% or less control value)	H (more than 50% control value)	H (more than 50% control value)	H (more than 50% control value)	H (more than 50% control value)	H (more than 50% control value)	H (more than 50% control value)
CCCc1cc(Cl)c(=O)n(CC(F)F)c1-c1c(F)cc(OC)cc1F [compound 475]	H (more than 50% control value)	L (50% or less control value)	H (more than 50% control value)	H (more than 50% control value)	H (more than 50% control value)	H (more than 50% control value)	H (more than 50% control value)	H (more than 50% control value)
CCCc1cc(Br)c(=O)n(CC(F)F)c1-c1c(F)cc(OC)cc1F [compound 476]	H (more than 50% control value)	L (50% or less control value)	H (more than 50% control value)	H (more than 50% control value)	H (more than 50% control value)	H (more than 50% control value)	H (more than 50% control value)	H (more than 50% control value)
CCCc1cc(I)c(=O)n(CC(F)F)c1-c1c(F)cc(OC)cc1F [compound 477]	H (more than 50% control value)	L (50% or less control value)	H (more than 50% control value)	H (more than 50% control value)	H (more than 50% control value)	H (more than 50% control value)	H (more than 50% control value)	L (50% or less control value)
CCn1c(-c2c(F)cc(F)cc2F)c(CO)ccc1=O [compound 478]	L (50% or less control value)	L (50% or less control value)	H (more than 50% control value)	L (50% or less control value)	L (50% or less control value)	L (50% or less control value)	L (50% or less control value)	L (50% or less control value)
CCn1c(-c2c(F)cc(F)cc2F)c(C(C)(OC)C(C)C)ccc1=O (centres unmarked) [compound 479]	H (more than 50% control value)	L (50% or less control value)	H (more than 50% control value)	H (more than 50% control value)	H (more than 50% control value)	H (more than 50% control value)	H (more than 50% control value)	H (more than 50% control value)
CCC(=O)c1ccc(=O)n(CC)c1-c1c(F)cc(F)cc1F [compound 480]	L (50% or less control value)	L (50% or less control value)	H (more than 50% control value)	L (50% or less control value)	L (50% or less control value)	H (more than 50% control value)	H (more than 50% control value)	L (50% or less control value)
CCn1c(-c2c(F)cc(F)cc2F)c(C(C)(O)CC)ccc1=O (centres unmarked) [compound 481]	L (50% or less control value)	L (50% or less control value)	H (more than 50% control value)	H (more than 50% control value)	L (50% or less control value)	H (more than 50% control value)	H (more than 50% control value)	L (50% or less control value)
CCn1c(-c2c(F)cc(F)cc2F)c(C(C)(O)CC)cc(Br)c1=O (centres unmarked) [compound 482]	H (more than 50% control value)	L (50% or less control value)	H (more than 50% control value)	H (more than 50% control value)	H (more than 50% control value)	H (more than 50% control value)	H (more than 50% control value)	H (more than 50% control value)
CCn1c(-c2c(F)cc(F)cc2F)c(C(C)(CC)OC)cc(Br)c1=O (centres unmarked) [compound 483]	H (more than 50% control value)	L (50% or less control value)	H (more than 50% control value)	H (more than 50% control value)	H (more than 50% control value)	H (more than 50% control value)	H (more than 50% control value)	H (more than 50% control value)
CCOC(C)(CC)c1cc(Br)c(=O)n(CC)c1-c1c(F)cc(F)cc1F (centres unmarked) [compound 484]	H (more than 50% control value)	L (50% or less control value)	H (more than 50% control value)	H (more than 50% control value)	L (50% or less control value)	H (more than 50% control value)	H (more than 50% control value)	H (more than 50% control value)
CCOC(C)(CC)c1cc(Br)c(=O)n(CC)c1-c1c(F)cc(OC)cc1F (centres unmarked) [compound 485]	H (more than 50% control value)	L (50% or less control value)	L (50% or less control value)	H (more than 50% control value)	H (more than 50% control value)	H (more than 50% control value)	H (more than 50% control value)	L (50% or less control value)
